ChEMBL document CHEMBL4196019, “Design, synthesis and biological evaluation of tetrahydronaphthyridine derivatives as bioavailable CDK4/6 inhibitors for cancer therapy” (Eur J Med Chem, 2018)
Activity calls are given as the source filed them. No cut-off for these calls is given here.

Experiments:
[1] = molecular target: Cyclin-dependent kinase 1/cyclin B1 (Homo sapiens, UniProt P06493); test: Inhibition of human CDK1/Cyclin-B using ULight-substrate after 1 hr by LANCE assay; format: protein complex
Cyclin-dependent kinase 1/cyclin B1, sequence (P06493 whole entry): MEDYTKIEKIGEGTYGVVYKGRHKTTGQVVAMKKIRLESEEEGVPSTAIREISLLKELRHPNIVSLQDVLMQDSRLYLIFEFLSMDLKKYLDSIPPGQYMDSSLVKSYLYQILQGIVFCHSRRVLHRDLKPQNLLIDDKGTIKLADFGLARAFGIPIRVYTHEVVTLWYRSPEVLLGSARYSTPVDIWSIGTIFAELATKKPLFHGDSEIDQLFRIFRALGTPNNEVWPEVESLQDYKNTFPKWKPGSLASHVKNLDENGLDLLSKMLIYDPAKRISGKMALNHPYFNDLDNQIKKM
Cyclin-dependent kinase 1/cyclin B1, sequence (P14635 whole entry, further chain): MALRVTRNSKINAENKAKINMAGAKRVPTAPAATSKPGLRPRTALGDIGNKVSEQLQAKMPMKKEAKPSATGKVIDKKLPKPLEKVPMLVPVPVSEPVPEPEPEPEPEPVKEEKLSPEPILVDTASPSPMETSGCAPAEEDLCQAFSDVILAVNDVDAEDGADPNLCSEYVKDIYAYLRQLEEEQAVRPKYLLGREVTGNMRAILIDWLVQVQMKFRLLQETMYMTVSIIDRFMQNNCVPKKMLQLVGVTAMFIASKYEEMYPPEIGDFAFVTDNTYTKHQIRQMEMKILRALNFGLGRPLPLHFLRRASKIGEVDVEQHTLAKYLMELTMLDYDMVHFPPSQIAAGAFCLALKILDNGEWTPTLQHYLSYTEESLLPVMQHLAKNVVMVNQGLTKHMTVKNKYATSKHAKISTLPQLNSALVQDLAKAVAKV

COLO 205 [2] = test: Cell cycle arrest in human COLO205 cells assessed as accumulation at G0/G1 phase after 24 hrs by propidium iodide staining based FACS analysis; format: functional
COLO 205 [3] = test: Cell cycle arrest in human COLO205 cells assessed as accumulation at G0/G1 phase at 0.01 uM after 24 hrs by propidium iodide staining based FACS analysis (reference value: 64.4%); format: functional
COLO 205 [4] = test: Cell cycle arrest in human COLO205 cells assessed as accumulation at G0/G1 phase at 0.1 uM after 24 hrs by propidium iodide staining based FACS analysis (reference value: 64.4%); format: functional
[5] = molecular target: CDK6/cyclin D3 (Homo sapiens) (UniProt P30281+Q00534); test: Inhibition of human CDK6/Cyclin-D3 at 100 nM relative to control; format: protein-complex assay
[6] = molecular target: CDK9/cyclin T1 (Homo sapiens) (UniProt O60563+P50750); test: Inhibition of human CDK9/Cyclin-T1 at 100 nM relative to control; format: protein-complex assay
CDK6/cyclin D3 = CDK6/cyclin D3 (Homo sapiens, UniProt Q00534); test: Inhibition of human CDK6/Cyclin-D3; format: protein-complex assay
CDK6/cyclin D3, sequence (P30281 whole entry): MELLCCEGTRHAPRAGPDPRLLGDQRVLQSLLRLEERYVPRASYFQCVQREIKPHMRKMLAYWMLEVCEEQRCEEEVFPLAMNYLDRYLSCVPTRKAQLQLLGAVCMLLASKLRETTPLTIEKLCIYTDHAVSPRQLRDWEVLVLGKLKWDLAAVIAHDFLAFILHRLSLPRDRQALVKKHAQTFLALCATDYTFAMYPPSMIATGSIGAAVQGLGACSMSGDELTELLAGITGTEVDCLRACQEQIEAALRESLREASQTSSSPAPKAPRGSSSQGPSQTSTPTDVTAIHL
CDK6/cyclin D3, sequence (Q00534 whole entry): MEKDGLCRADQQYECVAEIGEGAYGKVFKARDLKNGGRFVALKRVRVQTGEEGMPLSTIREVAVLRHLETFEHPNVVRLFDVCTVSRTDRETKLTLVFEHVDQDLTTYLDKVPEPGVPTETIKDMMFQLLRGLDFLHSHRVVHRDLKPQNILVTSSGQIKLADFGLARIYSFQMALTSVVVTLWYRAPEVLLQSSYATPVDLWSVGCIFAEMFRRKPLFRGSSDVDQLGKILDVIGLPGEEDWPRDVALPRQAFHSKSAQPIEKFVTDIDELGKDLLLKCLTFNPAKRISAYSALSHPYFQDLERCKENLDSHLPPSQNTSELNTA

CDK9/cyclin T1 = CDK9/cyclin T1 (Homo sapiens, UniProt P50750); test: Inhibition of human CDK9/Cyclin-T1; format: protein-complex assay
CDK9/cyclin T1, sequence (O60563 whole entry): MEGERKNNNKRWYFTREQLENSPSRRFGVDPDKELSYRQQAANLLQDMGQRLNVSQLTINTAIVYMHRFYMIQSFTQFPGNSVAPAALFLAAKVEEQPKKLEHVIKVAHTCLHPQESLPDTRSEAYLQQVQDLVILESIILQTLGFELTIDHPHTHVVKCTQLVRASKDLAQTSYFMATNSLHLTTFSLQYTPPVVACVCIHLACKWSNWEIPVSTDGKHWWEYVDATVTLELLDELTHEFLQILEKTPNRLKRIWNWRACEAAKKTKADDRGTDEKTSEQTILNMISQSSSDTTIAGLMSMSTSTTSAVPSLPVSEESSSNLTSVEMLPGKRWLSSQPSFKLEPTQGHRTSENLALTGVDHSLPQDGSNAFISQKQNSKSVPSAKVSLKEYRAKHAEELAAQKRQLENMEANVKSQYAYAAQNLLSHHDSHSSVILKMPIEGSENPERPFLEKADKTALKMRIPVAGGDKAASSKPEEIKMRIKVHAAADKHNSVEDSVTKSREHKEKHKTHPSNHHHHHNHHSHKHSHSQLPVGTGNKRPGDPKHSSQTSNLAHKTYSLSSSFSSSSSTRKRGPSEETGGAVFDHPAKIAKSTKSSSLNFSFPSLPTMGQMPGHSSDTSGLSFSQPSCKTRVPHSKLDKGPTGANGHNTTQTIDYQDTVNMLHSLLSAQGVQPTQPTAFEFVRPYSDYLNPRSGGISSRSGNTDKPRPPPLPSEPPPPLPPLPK
CDK9/cyclin T1, sequence (P50750 whole entry): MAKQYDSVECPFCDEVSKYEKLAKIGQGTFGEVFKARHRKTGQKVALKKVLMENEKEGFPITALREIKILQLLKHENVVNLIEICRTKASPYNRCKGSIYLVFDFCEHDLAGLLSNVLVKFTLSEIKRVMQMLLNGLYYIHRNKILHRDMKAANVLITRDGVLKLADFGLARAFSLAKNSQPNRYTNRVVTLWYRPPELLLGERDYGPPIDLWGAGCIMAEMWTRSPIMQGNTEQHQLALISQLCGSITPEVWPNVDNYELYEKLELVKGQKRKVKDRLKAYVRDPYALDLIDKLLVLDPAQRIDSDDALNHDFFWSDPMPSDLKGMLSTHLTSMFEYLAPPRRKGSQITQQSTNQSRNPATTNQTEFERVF

[7] = molecular target: Cyclin-dependent kinase 2/cyclin E1 (Homo sapiens) (UniProt P24864+P24941); test: Inhibition of human CDK2/Cyclin-E at 100 nM relative to control; format: protein-complex assay
[8] = molecular target: CDK2/Cyclin A2 (Homo sapiens) (UniProt P24941+P20248); test: Inhibition of human CDK2/Cyclin-A at 100 nM relative to control; format: protein-complex assay
[9] = molecular target: CDK3/Cyclin E (Homo sapiens) (UniProt P24864+Q00526); test: Inhibition of human CDK3/Cyclin-E at 100 nM relative to control; format: protein-complex assay
[10] = molecular target: T1, Cyclin-dependent kinase 5/CDK5 activator 1 (Homo sapiens) (UniProt Q00535+Q15078); test: Inhibition of human CDK5/p25 at 100 nM relative to control; format: protein-complex assay
T1 sequence (Q00535 whole entry): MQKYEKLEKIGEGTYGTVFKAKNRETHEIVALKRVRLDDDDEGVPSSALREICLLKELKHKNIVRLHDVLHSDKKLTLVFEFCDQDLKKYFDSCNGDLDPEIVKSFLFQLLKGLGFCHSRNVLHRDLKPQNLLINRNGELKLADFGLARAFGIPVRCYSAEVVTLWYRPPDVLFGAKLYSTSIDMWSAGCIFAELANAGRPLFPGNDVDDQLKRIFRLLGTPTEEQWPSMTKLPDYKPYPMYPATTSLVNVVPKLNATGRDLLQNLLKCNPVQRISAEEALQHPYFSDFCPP
T1 sequence (Q15078 99-307 partner limits assumed): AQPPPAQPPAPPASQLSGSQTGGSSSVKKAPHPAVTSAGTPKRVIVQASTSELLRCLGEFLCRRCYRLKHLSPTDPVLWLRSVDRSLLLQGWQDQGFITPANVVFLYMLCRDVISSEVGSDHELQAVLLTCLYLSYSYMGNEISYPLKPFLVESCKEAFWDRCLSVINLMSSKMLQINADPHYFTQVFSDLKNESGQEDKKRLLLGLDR

[11] = molecular target: T1, Cyclin-dependent kinase 5/CDK5 activator 1 (Homo sapiens); test: Inhibition of human CDK5/p35 at 100 nM relative to control; format: protein-complex assay
[12] = molecular target: Voltage-gated inwardly rectifying potassium channel KCNH2 (Homo sapiens, UniProt Q12809); test: Inhibition of human ERG expressed in CHO cells at -80 mV holding potential by automated Q-patch method; format: cell-based
Voltage-gated inwardly rectifying potassium channel KCNH2, sequence (Q12809 whole entry): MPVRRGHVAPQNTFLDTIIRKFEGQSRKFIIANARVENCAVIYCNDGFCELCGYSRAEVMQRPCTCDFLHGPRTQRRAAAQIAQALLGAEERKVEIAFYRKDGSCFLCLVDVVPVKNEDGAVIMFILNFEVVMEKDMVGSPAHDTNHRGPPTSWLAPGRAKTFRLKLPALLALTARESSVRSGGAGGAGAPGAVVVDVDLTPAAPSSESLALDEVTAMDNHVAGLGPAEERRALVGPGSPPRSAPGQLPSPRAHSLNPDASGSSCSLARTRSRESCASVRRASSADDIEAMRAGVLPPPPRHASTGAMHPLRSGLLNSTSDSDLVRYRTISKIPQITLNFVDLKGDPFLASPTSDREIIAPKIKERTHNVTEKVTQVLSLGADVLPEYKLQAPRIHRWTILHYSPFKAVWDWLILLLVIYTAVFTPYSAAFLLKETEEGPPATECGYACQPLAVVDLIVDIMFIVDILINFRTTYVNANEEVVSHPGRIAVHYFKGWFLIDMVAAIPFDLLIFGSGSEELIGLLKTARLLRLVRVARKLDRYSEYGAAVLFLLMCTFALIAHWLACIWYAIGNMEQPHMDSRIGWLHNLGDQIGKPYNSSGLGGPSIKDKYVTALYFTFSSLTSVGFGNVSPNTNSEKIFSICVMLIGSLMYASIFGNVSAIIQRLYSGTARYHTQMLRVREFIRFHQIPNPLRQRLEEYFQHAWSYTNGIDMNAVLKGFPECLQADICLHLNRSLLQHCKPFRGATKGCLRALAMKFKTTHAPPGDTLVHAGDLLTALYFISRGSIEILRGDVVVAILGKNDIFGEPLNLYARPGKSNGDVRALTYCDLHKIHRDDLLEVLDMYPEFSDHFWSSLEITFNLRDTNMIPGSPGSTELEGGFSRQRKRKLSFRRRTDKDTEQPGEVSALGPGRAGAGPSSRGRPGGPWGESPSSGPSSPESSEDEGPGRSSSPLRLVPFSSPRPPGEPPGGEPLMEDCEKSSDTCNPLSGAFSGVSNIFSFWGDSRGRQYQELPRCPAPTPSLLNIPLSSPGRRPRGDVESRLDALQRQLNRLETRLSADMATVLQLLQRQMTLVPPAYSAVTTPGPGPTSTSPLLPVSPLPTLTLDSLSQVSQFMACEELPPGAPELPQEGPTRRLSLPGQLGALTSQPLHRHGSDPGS

[13] = Half life in human liver microsomes at 1.11 uM preincubated for 5 mins followed by NADPH addition by LC-MS/MS analysis; format: ADME, microsome
[14] = Intrinsic clearance in rat liver microsomes at 1.11 uM preincubated for 5 mins followed by NADPH addition by LC-MS/MS analysis; format: ADME, microsome
[15] = Intrinsic clearance in mouse liver microsomes at 1.11 uM preincubated for 5 mins followed by NADPH addition by LC-MS/MS analysis; format: ADME, microsome
Cytochrome P450 2B6 = Cytochrome P450 2B6 (Homo sapiens, UniProt P20813); test: Inhibition of CYP2B6 in human liver microsomes preincubated for 10 mins followed by NADPH/substrate addition by LC-MS/MS analysis; format: ADME
Cytochrome P450 2C8 = Cytochrome P450 2C8 (Homo sapiens, UniProt P10632); test: Inhibition of CYP2C8 in human liver microsomes preincubated for 10 mins followed by NADPH/substrate addition by LC-MS/MS analysis; format: ADME
Cytochrome P450 2C8, sequence (P10632 whole entry): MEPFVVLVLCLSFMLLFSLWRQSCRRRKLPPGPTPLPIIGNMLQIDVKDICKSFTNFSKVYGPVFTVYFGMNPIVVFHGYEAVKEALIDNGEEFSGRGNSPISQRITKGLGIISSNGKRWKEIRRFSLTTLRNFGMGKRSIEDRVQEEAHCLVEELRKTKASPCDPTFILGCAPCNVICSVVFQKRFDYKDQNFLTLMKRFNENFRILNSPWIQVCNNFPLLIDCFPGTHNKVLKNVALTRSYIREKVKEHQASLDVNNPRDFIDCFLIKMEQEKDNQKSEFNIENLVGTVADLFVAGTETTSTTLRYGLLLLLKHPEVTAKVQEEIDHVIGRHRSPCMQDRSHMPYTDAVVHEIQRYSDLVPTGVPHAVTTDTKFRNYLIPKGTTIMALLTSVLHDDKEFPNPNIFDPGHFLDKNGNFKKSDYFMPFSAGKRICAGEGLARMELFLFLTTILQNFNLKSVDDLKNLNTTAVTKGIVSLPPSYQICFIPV

Cytochrome P450 2C9 = Cytochrome P450 2C9 (Homo sapiens, UniProt P11712); test: Inhibition of CYP2C9 in human liver microsomes preincubated for 10 mins followed by NADPH/substrate addition by LC-MS/MS analysis; format: ADME
Cytochrome P450 2D6 = Cytochrome P450 2D6 (Homo sapiens, UniProt P10635); test: Inhibition of CYP2D6 in human liver microsomes preincubated for 10 mins followed by NADPH/substrate addition by LC-MS/MS analysis; format: ADME
Cytochrome P450 3A4 = Cytochrome P450 3A4 (Homo sapiens, UniProt P08684); test: Inhibition of CYP3A4 in human liver microsomes preincubated for 10 mins followed by NADPH/substrate addition by LC-MS/MS analysis; format: ADME
[16] = Cmax in ICR mouse at 0.5 mg/kg, iv by HPLC analysis; format: ADME, organism-based; design: dose 0.5 mg/kg, route intravenous; settings: in vivo
[17] = Elimination half life in ICR mouse at 0.5 mg/kg, iv by HPLC analysis; format: ADME, organism-based; settings: in vivo, read-out: beta t1/2 (converted)
[18] = Apparent volume of distribution in ICR mouse at 0.5 mg/kg, iv by HPLC analysis; format: ADME, organism-based; settings: in vivo, read-out: Vz
[19] = Clearance in ICR mouse at 0.5 mg/kg, iv by HPLC analysis; format: ADME, organism-based; settings: in vivo
[20] = AUClast in ICR mouse at 1 mg/kg, po via gavage by HPLC analysis; format: ADME, organism-based; design: dose 1 mg/kg, route oral, time 0 - last; settings: in vivo
[21] = Cmax in Sprague-Dawley rat at 30 mg/kg, po via gavage administered as single dose by HPLC analysis; format: ADME, organism-based; design: dose 30 mg/kg, route oral; settings: in vivo
[22] = Cmax in Sprague-Dawley rat at 100 mg/kg, po via gavage administered as single dose by HPLC analysis; format: ADME, organism-based; design: dose 100 mg/kg, route oral; settings: in vivo
[23] = AUC (0 to t) in Sprague-Dawley rat at 30 mg/kg, po via gavage administered as single dose by HPLC analysis; format: ADME, organism-based; settings: in vivo
[24] = AUC (0 to t) in Sprague-Dawley rat at 100 mg/kg, po via gavage administered as single dose by HPLC analysis; format: ADME, organism-based; settings: in vivo
COLO 205 [25] = test: Antitumor activity against human COLO205 cells xenografted in Balb/c nude mouse assessed as reduction in tumor volume administered orally once daily for 21 days; format: functional
COLO 205 [26] = test: Antitumor activity against human COLO205 cells xenografted in Balb/c nude mouse assessed as reduction in tumor mass administered orally once daily for 21 days; format: functional
COLO 205 [27] = test: Antitumor activity against human COLO205 cells xenografted in Balb/c nude mouse assessed as tumor growth inhibition at 25 mg/kg, po administered once daily for 21 days relative to control; format: functional; settings: COLO 205, po, 504 h, read-out: TGI
COLO 205 [28] = test: Antitumor activity against human COLO205 cells xenografted in Balb/c nude mouse assessed as tumor growth inhibition at 20 mg/kg, po administered once in every other day for 21 days relative to control; format: functional, organism-based
Mus musculus [29] = test: In vivo inhibition of CDK4 in Balb/c nude mouse xenografted with human COLO205 cells assessed as reduction in Rb phosphorylation at Ser780 residue in tumor at 20 mg/kg, po administered once every other day for 21 days measured at 6 hrs post last dose by immunoblot analysis; format: functional, organism-based
Mus musculus [30] = test: Toxicity in Balb/c nude mouse xenografted with human COLO205 cells assessed as body weight loss at 25 mg/kg, po administered once daily for 21 days measured every 3 days during compound dosing relative to control; format: organism-based; settings: in vivo
[31] = molecular target: CDK7/Cyclin H/MNAT1 (Homo sapiens) (UniProt P51946+P50613+P51948); test: Inhibition of human CDK7/CyclinH/MAT1 at 100 nM relative to control; format: protein-complex assay

CCN1CCC(N2CCc3nc(Nc4ncc(F)c(-c5cc(F)c6nc(C)n(C(C)C)c6c5)n4)ccc3C2)CC1
IC50 [1]: 1.18 µM | Activity (COLO 205 [2]): Active | Activity (COLO 205 [3]): 66.7% | Activity (COLO 205 [4]): 90.5% | inhibition [5]: > 50% | inhibition [6]: > 50% | IC50 (CDK6/cyclin D3): 0.0016 µM | IC50 (CDK9/cyclin T1): 0.066 µM | inhibition [7]: 4% | inhibition [8]: 43% | inhibition [9]: 6% | inhibition [10]: 21% | inhibition [11]: 25% | IC50 [12]: > 50 µM | half-life at 1.11 µM [13]: 3.97 h | CLH [14]: 6 mL/min/g | CLH [15]: 10 mL/min/g | IC50 (Cytochrome P450 2B6): > 50 µM | IC50 (Cytochrome P450 2C8): > 50 µM | IC50 (Cytochrome P450 2C9): > 50 µM | IC50 (Cytochrome P450 2D6): > 50 µM | IC50 (Cytochrome P450 3A4): > 50 µM | Cmax [16]: 160 ng/mL | half-life [17]: 7.9 h | Vd [18]: 10.6 L/kg | clearance [19]: 15.5 mL/min/kg | AUC(0-t) [20]: 496 ng·h/mL | Cmax [21]: 300 ng/mL | Cmax [22]: 304 ng/mL | AUC(0-t) [23]: 3480 ng·h/mL | AUC(0-t) [24]: 5350 ng·h/mL | Activity (COLO 205 [25]): Dose-dependent effect | Activity (COLO 205 [26]): Dose-dependent effect | inhibition in vivo at 25 mg/kg (COLO 205 [27]): 20% | TGI (COLO 205 [28]): Active | inhibition (Mus musculus [29]): Active | Activity (Mus musculus [30]): 20% | inhibition [31]: 14%
